Reference: patent US7507727B2, “Substituted quinobenzoxazine analogs and methods of using thereof” (Cylene Pharmaceuticals, Inc., priority 2003, dated 2009)

Molecular target: c-Myc template DNA (c-myc quadruplex)
Assay: Quadruplex binding / stop assay (Taq polymerase arrest, capillary electrophoresis)
Conditions: read-out: Stop Data c-Myc μM; concentration at which 50% of the DNA was arrested (arrested:full-length 1:1)

For CN1CCCC1CCNc1ccc2c(=O)c(C(=O)NCCCN3CCOCC3)cn3c2c1Oc1cc2ccccc2cc1-3 (stereo not drawn) [compound 269], the IC50 was 1.75 µM.
With CN1CCCC1CCNc1ccc2c(=O)c(C(=O)NC3CC(C)(C)NC(C)(C)C3)cn3c2c1Oc1cc2ccccc2cc1-3 (stereo not drawn) [compound 270] the IC50 was 1.75 µM.
Molecule CN1CCCC1CCNc1ccc2c(=O)c(C(=O)NCCN3CCOCC3)cn3c2c1Oc1cc2ccccc2cc1-3 (stereo not drawn) [compound 271] has an IC50 of 1.75 µM.
Molecule O=C(NCCN1CCCC1)c1cn2c3c(c(NCCCN4CCOCC4)ccc3c1=O)Oc1cc3ccccc3cc1-2 [compound 272] has an IC50 of 1.75 µM.
CN1CCCC1CCNC(=O)c1cn2c3c(c(NCCCN4CCOCC4)ccc3c1=O)Oc1cc3ccccc3cc1-2 (stereo not drawn) [compound 273] gave an IC50 of 1.75 µM.
For CC1(C)CC(NC(=O)c2cn3c4c(c(N5CCC(NC(=O)OC(C)(C)C)C5)ccc4c2=O)Oc2cc4ccccc4cc2-3)CC(C)(C)N1 (stereo not drawn) [compound 274], the IC50 was 1.75 µM.
With CN(C)CCCCNc1ccc2c(=O)c(C(=O)NCCC3CCCN3C)cn3c2c1Oc1cc2ccccc2cc1-3 (stereo not drawn) [compound 275] the IC50 was 1.75 µM.
CN(C)CCCCNc1ccc2c(=O)c(C(=O)NC3CC(C)(C)NC(C)(C)C3)cn3c2c1Oc1cc2ccccc2cc1-3 [compound 276] gave an IC50 of 1.75 µM.
With CN(C)CCCCNC(=O)c1cn2c3c(c(NCCCCN(C)C)ccc3c1=O)Oc1cc3ccccc3cc1-2 [compound 277] the IC50 was 1.75 µM.
Work on CN1CCN(CCCNc2ccc3c(=O)c(C(=O)NCCCN4CCOCC4)cn4c3c2Oc2cc3ccccc3cc2-4)CC1 [compound 278] yielded an IC50 of 1.75 µM.
For CN1CCN(CCCNc2ccc3c(=O)c(C(=O)NCCN4CCOCC4)cn4c3c2Oc2cc3ccccc3cc2-4)CC1 [compound 279], the IC50 was 1.75 µM.
NC1CCN(c2ccc3c(=O)c(C(=O)O)cn4c3c2Oc2cc3ccccc3cc2-4)C1 (stereo not drawn) [compound 280] showed an IC50 of 1.75 µM.
CN1CCCC1CCNC(=O)c1cn2c3c(c(N4CCC(N)CC4)c(F)cc3c1=O)Oc1cc3ccccc3cc1-2 (stereo not drawn) [compound 281] was tested, and the IC50 was 1.75 µM.
Work on NC1CCN(C(=O)c2cn3c4c(c(N5CC6CCCNC6C5)c(F)cc4c2=O)Oc2cc4ccccc4cc2-3)C1 (stereo not drawn) [compound 282] yielded an IC50 of 1.75 µM.
Work on CC(O)CNc1c(F)cc2c(=O)c(C(=O)NCCC3CCCN3C)cn3c2c1Oc1cc2ccccc2cc1-3 (stereo not drawn) [compound 283] yielded an IC50 of 1.75 µM.
With CN1CCCC1CCNC(=O)c1cn2c3c(c(NCCCCO)c(F)cc3c1=O)Oc1cc3ccccc3cc1-2 (stereo not drawn) [compound 284] the IC50 was 1.75 µM.
In the case of CC(CNc1c(F)cc2c(=O)c(C(=O)NCCC3CCCN3C)cn3c2c1Oc1cc2ccccc2cc1-3)c1ccccc1 (stereo not drawn) [compound 285], the IC50 is reported as 1.75 µM.
COc1ccc(CCNc2c(F)cc3c(=O)c(C(=O)NCCC4CCCN4C)cn4c3c2Oc2cc3ccccc3cc2-4)cc1 (stereo not drawn) [compound 286] was tested, and the IC50 was 1.75 µM.
Molecule CN1CCCC1CCNC(=O)c1cn2c3c(c(NCCc4c[nH]c5ccccc45)c(F)cc3c1=O)Oc1cc3ccccc3cc1-2 (stereo not drawn) [compound 287] has an IC50 of 1.75 µM.
COc1ccc2c(CCNc3c(F)cc4c(=O)c(C(=O)NCCC5CCCN5C)cn5c4c3Oc3cc4ccccc4cc3-5)c[nH]c2c1 (stereo not drawn) [compound 288] showed an IC50 of 1.75 µM.
For COc1cccc(CCNc2c(F)cc3c(=O)c(C(=O)NCCC4CCCN4C)cn4c3c2Oc2cc3ccccc3cc2-4)c1 (stereo not drawn) [compound 289], the IC50 was 1.75 µM.
For COc1ccc2[nH]cc(CCNc3c(F)cc4c(=O)c(C(=O)NCCC5CCCN5C)cn5c4c3Oc3cc4ccccc4cc3-5)c2c1 (stereo not drawn) [compound 290], the IC50 was 1.75 µM.
COc1ccc(OC)c(CCNc2c(F)cc3c(=O)c(C(=O)NCCC4CCCN4C)cn4c3c2Oc2cc3ccccc3cc2-4)c1 (stereo not drawn) [compound 291] gave an IC50 of 1.75 µM.
CN1CCCC1CCNC(=O)c1cn2c3c(c(NCC(O)CO)c(F)cc3c1=O)Oc1cc3ccccc3cc1-2 (stereo not drawn) [compound 292] showed an IC50 of 1.75 µM.
For CN1CCCC1CCNC(=O)c1cn2c3c(c(NCCCO)c(F)cc3c1=O)Oc1cc3ccccc3cc1-2 (stereo not drawn) [compound 293], the IC50 was 1.75 µM.
Molecule C[C@H](O)CNc1c(F)cc2c(=O)c(C(=O)NCCC3CCCN3C)cn3c2c1Oc1cc2ccccc2cc1-3 (stereo partly drawn) [compound 294] has an IC50 of 1.75 µM.
With CC1CCCN(CCCNc2c(F)cc3c(=O)c(C(=O)NCCC4CCCN4C)cn4c3c2Oc2cc3ccccc3cc2-4)C1 (stereo not drawn) [compound 295] the IC50 was 1.75 µM.
CC1CCCC(C)N1CCCNc1c(F)cc2c(=O)c(C(=O)NCCC3CCCN3C)cn3c2c1Oc1cc2ccccc2cc1-3 (stereo not drawn) [compound 296] showed an IC50 of 1.75 µM.
In the case of CN1CCCC1CCNC(=O)c1cn2c3c(c(NCCCNC(=O)OC(C)(C)C)c(F)cc3c1=O)Oc1cc3ccccc3cc1-2 (stereo not drawn) [compound 297], the IC50 is reported as 1.75 µM.
Molecule CN1CCCC1CCNc1c(F)cc2c(=O)c(C(N)=O)cn3c2c1Oc1cc2ccccc2cc1-3 (stereo not drawn) [compound 298] has an IC50 of 1.75 µM.
For COc1ccc2[nH]cc(CCNC(=O)c3cn4c5c(c(N6CCC(N)C6)c(F)cc5c3=O)Oc3cc5ccccc5cc3-4)c2c1 (stereo not drawn) [compound 299], the IC50 was 1.75 µM.
Work on NC1CCN(c2c(F)cc3c(=O)c(C(=O)NCC(O)CO)cn4c3c2Oc2cc3ccccc3cc2-4)C1 (stereo not drawn) [compound 300] yielded an IC50 of 1.75 µM.
CC1CCCN(CCCNC(=O)c2cn3c4c(c(N5CCC(N)C5)c(F)cc4c2=O)Oc2cc4ccccc4cc2-3)C1 (stereo not drawn) [compound 301] gave an IC50 of 1.75 µM.
CCCCN1CCC(CNC(=O)c2cn3c4c(c(N5CCC(N)C5)c(F)cc4c2=O)Oc2cc4ccccc4cc2-3)CC1 (stereo not drawn) [compound 302] gave an IC50 of 1.75 µM.
CN1CCN(CCCNC(=O)c2cn3c4c(c(N5CC[C@@H](N)C5)c(F)cc4c2=O)Oc2c-3ccc3ccccc23)CC1 [compound 304] was tested, and the IC50 was 1.13 µM.
CCN(CC)CCNc1c(F)cc2c(=O)c(C(=O)N3CCOCC3)cn3c2c1Oc1cc2ccccc2cc1-3 [compound 305] was tested, and the IC50 was 1.05 µM.
For O=C(NCCCn1ccnc1)c1cn2c3c(c(NCCCN4CCOCC4)c(F)cc3c1=O)Oc1cc3c(cc1-2)oc1ccccc13 [compound 313], the IC50 was 1 µM.
With O=C(NCCCn1ccnc1)c1cn2c3c(c(NCCCN4CCOCC4)c(F)cc3c1=O)Oc1cc3c(cc1-2)-c1ccccc1C3 [compound 314] the IC50 was 1 µM.
With O=C(Nc1ccncc1)c1cn2c3c(c(NCCCN4CCOCC4)c(F)cc3c1=O)Oc1cc3c(cc1-2)oc1ccccc13 [compound 315] the IC50 was 1 µM.
With CC(C)NCCCNc1c(F)cc2c(=O)c(C(=O)N3CCOCC3)cn3c2c1Oc1cc2ccccc2cc1-3 [compound 316] the IC50 was 1 µM.
Work on CN(C)CCCCNC(=O)c1cn2c3c(c(NCCN4CCCC4)c(F)cc3c1=O)Oc1cc3ccccc3cc1-2 [compound 317] yielded an IC50 of 1 µM.
With CN(C)CCCCNc1c(F)cc2c(=O)c(C(=O)NCCN3CCCC3)cn3c2c1Oc1cc2ccccc2cc1-3 [compound 318] the IC50 was 1 µM.
For O=C(CCN1CCCCC1)N[C@@H]1CCN(c2c(F)cc3c(=O)c(C(=O)NCCN4CCOCC4)cn4c3c2Oc2cc3c(cc2-4)oc2ccccc23)C1 [compound 319], the IC50 was 1 µM.
With O=C(O)c1cn2c3cc4c(cc3oc3c(F)c(F)cc(c1=O)c32)c(=O)c1ccccc14 [compound 320] the IC50 was 1 µM.
For O=C(NCCN1CCOCC1)c1cn2c3cc4c(cc3oc3c(NCCN5CCOCC5)c(F)cc(c1=O)c32)c(=O)c1ccccc14 [compound 321], the IC50 was 1 µM.
With CC(C)(C)OC(=O)N[C@@H]1CCN(c2c(F)cc3c(=O)c(C(=O)NCCCCN=C(N)N)cn4c3c2Oc2cc3ccccc3cc2-4)C1 [compound 322] the IC50 was 1 µM.
Molecule CC(C)(C)OC(=O)NC1CCN(c2c(F)cc3c(=O)c(C(=O)NCCCCN4CCCC4)cn4c3c2Oc2cc3ccccc3cc2-4)C1 (stereo not drawn) [compound 323] has an IC50 of 1 µM.
For CN1CCCC1CCNC(=O)c1cn2c3c(c(N4CCC(n5c(=O)[nH]c6ccccc65)CC4)c(F)cc3c1=O)Oc1cc3ccccc3cc1-2 (stereo not drawn) [compound 324], the IC50 was 1 µM.
